Here are results for three compounds from paper PMC6918025, “Genomewide and Enzymatic Analysis Reveals Efficient D-Galacturonic Acid Metabolism in the Basidiomycete Yeast Rhodosporidium toruloides” (mSystems, 2019).

What all share (format): biochemical, Rhodotorula toruloides
The test system of assay [1] is T1, RTO4_12062 (L-galactonate dehydratase).
T1 construct: gene GaaB; full-length, N-terminal HIS6-TEV tag removed by TEV protease, expressed in E. coli Rosetta, IMAC
As to the kind of experiment: semicarbazide assay at […] nm. The settings on record: 5 mM MgCl2, 50 mM sodium phosphate pH 7.0; tag removed.

The subject of assay [2] is RTO4_11882 (D-galUA reductase, GAR1 homolog). Kind of assay: NADPH loss at […] nm. The settings on record: 0.3 mM NADPH, pH 7, 30°C.
Assay [3] has as its system T2, RTO4_9774 (L-glyceraldehyde reductase).
T2 construct: gene GaaD
Kind of assay: NADPH loss at […] nm. The settings on record: 0.3 mM NADPH, pH 7, 30°C.

On to `O=C(O)[C@@H](O)[C@H](O)[C@H](O)[C@@H](O)CO` [L-galactonate], for which the Km in assay [1] was found to be 5.8 mM.
In the case of `O=C(O)[C@H]1OC(O)[C@H](O)[C@@H](O)[C@H]1O` (stereo partly drawn) [D-galUA], the Km in assay [2] was about 7 mM.
For the compound `O=C[C@@H](O)CO` [L-glyceraldehyde], in assay [3], the Km stood at 0.9 mM.

As usually defined, the Km is the concentration of substrate that gives half-maximal velocity.
